In publication PMC12030043, “Preparation and Therapeutic Evaluation of Engineered Semaglutide and Statin–Lipid Conjugate-Based Nanoparticle” (Pharmaceutics, 2025):

What was measured:
[1] = tested on: high-fat diet (HFD)-fed mouse model; experiment: Oral glucose tolerance test (OGTT) in HFD-fed mice; type: in vivo, C57BL/6 mice; settings: day 64, 19 h fasting, oral glucose 2 g/kg, 0-180 min, glucometer, n = 3; RO 0.5 mg/kg, RLC 1 mg/kg, SRLC NPs 1.1 mg/kg s.c.
Experimental: All animal experiments were conducted under the standard regulations of the Institutional Animal Care and Use Committee (IACUC) at Konkuk University (ref. no. KU22078-1). The animals were housed in a controlled environment with regulated temperature and humidity, maintained under a 12 h light–dark cycle. Obesity was induced in 5-week-old male C57BL/6 mice through dietary control for 69 days. A total of 25 mice were used and divided into five experimental groups: negative control (regular diet, RD), positive control (high-fat diet, HFD), RO (0.5 mg/kg), RLC (1 mg/kg), and SRLC NPs (1.1 mg/kg). The RO dose was set at half that of RLC due to its molecular weight being approximately twice that of RLC, ensuring equivalent molar exposure. Additionally, the SRLC NP dose was adjusted to 1.1 mg/kg as it comprised 1 mg of RLC and 0.1 mg of semaglutide, allowing for the accurate comparison of therapeutic effects. While the RD group received a normal diet, the other groups were fed a high-fat diet (HFD) consisting of 60 kcal% fat (D12492, Research Diets, New Brunswick, NJ, USA). The body weights of the mice were measured weekly. Starting from day 28 of the dietary intervention, each group received their respective substances via subcutaneous injection every three days. […] Blood glucose levels were then measured at time intervals of 0, 15, 30, 60, 90, 120, and 180 min (n = 3).

[2] = tested on: high-fat diet (HFD)-fed mouse model; experiment: Histopathology (H&E and oil red O staining) of liver and adipose tissue in HFD-fed mice; type: in vivo, C57BL/6 mice
Experimental: All animal experiments were conducted under the standard regulations of the Institutional Animal Care and Use Committee (IACUC) at Konkuk University (ref. no. KU22078-1). The animals were housed in a controlled environment with regulated temperature and humidity, maintained under a 12 h light–dark cycle. Obesity was induced in 5-week-old male C57BL/6 mice through dietary control for 69 days. A total of 25 mice were used and divided into five experimental groups: negative control (regular diet, RD), positive control (high-fat diet, HFD), RO (0.5 mg/kg), RLC (1 mg/kg), and SRLC NPs (1.1 mg/kg). The RO dose was set at half that of RLC due to its molecular weight being approximately twice that of RLC, ensuring equivalent molar exposure. Additionally, the SRLC NP dose was adjusted to 1.1 mg/kg as it comprised 1 mg of RLC and 0.1 mg of semaglutide, allowing for the accurate comparison of therapeutic effects. While the RD group received a normal diet, the other groups were fed a high-fat diet (HFD) consisting of 60 kcal% fat (D12492, Research Diets, New Brunswick, NJ, USA). The body weights of the mice were measured weekly. Starting from day 28 of the dietary intervention, each group received their respective substances via subcutaneous injection every three days. Five days before the end of the experiment, an oral glucose tolerance test (OGTT) was conducted to assess glucose sensitivity. After 19 h of fasting, all experimental groups were administered a glucose solution orally (2 g/kg). Blood glucose levels were then measured at time intervals of 0, 15, 30, 60, 90, 120, and 180 min (n = 3). Blood glucose levels were assessed using a glucometer (G CARE, GC Medical Science, Yongin, Republic of Korea). On the final day of the experiment, after 14 h of fasting, the mice were anesthetized via intraperitoneal administration of 2,2,2-tribromoethanol (TBE), and blood samples were collected. Hepatotoxicity and lipid profiling analyses were conducted using the collected blood samples, while liver tissues were subjected to hematoxylin and eosin (H&E) and oil red O (ORO) staining for further evaluation. All analyses were performed by KP&T Technology (Cheongju, Republic of Korea).
Representative images of mice from the HFD group and the SRLC NPs-treated group on the final day of the experiment are shown in Figure 9A. To evaluate the pathological changes at the tissue level and the therapeutic effects of SRLC NPs, hematoxylin and eosin (H&E) staining and oil red O (ORO) staining were performed (Figure 9B). These staining analyses were conducted to confirm the reduction in hepatic fat accumulation and assess adipose tissue remodeling following SRLC NPs treatment. […] The area of the adipocyte in sWAT (n = 4) was as follows: HFD, 78.86 ± 1.38%; RO, 77.51 ± 2.52%; RLC, 72.72 ± 2.75%; and SRLC NPs, 47.45 ± 1.03% (Figure 9E). The diameter of the adipocyte in eWAT (n = 7) was the following: HFD, 64.12 ± 12.51 µm; RO, 59.53 ± 6.42 µm; RLC, 57.01 ± 7.04 µm; and SRLC NPs, 33.79 ± 3.62 µm (Figure 9F). The area of the adipocyte in eWAT (n = 4) was as follows: HFD, 76.44 ± 1.91%; RO, 79.30 ± 1.91%; RLC, 79.223 ± 1.53%; and SRLC NPs, 63.28 ± 2.94% (Figure 9G).

Question: For CC(C)c1nc(N(C)S(C)(=O)=O)nc(-c2ccc(F)cc2)c1C=CC(O)CC(O)CC(=O)NCCNC(=O)CCC(C)C1CCC2C3C(O)CC4CC(O)CCC4(C)C3CCC12C (stereo not drawn) [RLC], which “blood glucose response in OGTT (in words)” value [1] is on record?
Answer: Its value is “sharp increase in blood glucose levels immediately after administration, followed by a gradual decline”.

Question: What about the “lipid staining and fat droplet accumulation in liver tissue (in words)” value ([2]; H&E and ORO staining, RO 0.5, RLC 1, SRLC NPs 1.1 mg/kg s.c.) of the same compound?
Answer: Its value is “abnormal fat droplet accumulation”.

Question: And the “diameter of the adipocyte in sWAT” value ([2]; H&E, HFD group 60.32 ± 6.95 µm, mean ± S.D., n = 7)?
Answer: Its value is 49.79 ± 7.09 µm.

Question: What about the “diameter of the adipocyte in eWAT” value ([2]; H&E, HFD group 64.12 ± 12.51 µm, mean ± S.D., n = 7) of the same compound?
Answer: Its value is 57.01 ± 7.04 µm.

Question: What about the “area of the adipocyte in sWAT” value ([2]; H&E, HFD group 78.86 ± 1.38%, mean ± S.D., n = 4) of the same compound?
Answer: The value was 72.72 ± 2.75%.

Question: And the “quantification of ORO staining” value ([2]; liver tissue, HFD group = 100.00 ± 15.00%, RO 0.5, RLC 1, SRLC NPs 1.1 mg/kg s.c., mean ± S.D., n = 4)?
Answer: The value was 49.50 ± 9.53%.
